From patent publication US12285407B2, “Bis-indolylmethane derivatives and uses thereof” (The University of The West Indies, priority 2018, dated 2025)
Where two headings read alike, the source gives them in different places.

Columns and labels:
Assay type in all cases: cell-based
[1] = tested on: Streptococcus pyogenes ATCC 19615; test: Broth microdilution MIC of SP-BIMs; settings: ATCC19615, SP-BIM alone, read-out: MIC Streptococcus pyogenes ATCC 19615
[2] = tested on: Bacillus cereus ATCC 14579; test: Broth microdilution MIC of SP-BIMs; settings: ATCC14579, SP-BIM alone, read-out: MIC Bacillus cereus ATCC 14579
[3] = tested on: Enterococcus faecium ATCC 19434; test: Broth microdilution MIC of SP-BIMs; settings: ATCC19434, SP-BIM alone, read-out: MIC Enterococcus faecium ATCC 19434
[4] = tested on: Corynebacterium diphtheriae ATCC 27010; test: Broth microdilution MIC of SP-BIMs; settings: ATCC27010, SP-BIM alone, read-out: MIC Corynebacterium diphtheriae ATCC 27010
[5] = tested on: Staphylococcus aureus ATCC 12600; test: Broth microdilution MIC of SP-BIMs; settings: ATCC12600, SP-BIM alone, read-out: MIC Staphylococcus aureus ATCC 12600
[6] = tested on: Klebsiella pneumoniae ATCC 49472; test: Broth microdilution MIC of SP-BIMs; settings: ATCC49472, SP-BIM alone, read-out: MIC Klebisella pneumoniae ATCC 49472
[7] = tested on: Escherichia coli ATCC 35218; test: Broth microdilution MIC of SP-BIMs; settings: ATCC35218, SP-BIM alone, read-out: MIC Escherichia coli ATCC 35218
[8] = tested on: Salmonella typhimurium ATCC 14028; test: Broth microdilution MIC of SP-BIMs; settings: Salmonella enterica, read-out: MIC Salmonella tvpkimurium ATCC 14028
Source text: Reference microorganisms used in this study included: Bacillus cereus (American Type Culture Collection (ATCC) No. 14579), Streptococcus pyogenes (ATCC No. 19615), Staphylococcus aureus (ATCC No. 12600), Enterococcus faecium (ATCC No. 19434), Corynebacterium diphtheriae (ATCC No. 27010), Escherichia coli (ATCC No. 35218), Salmonella typhimurium (ATCC No. 14028), Pseudomonas aeruginosa (ATCC No. 27853), Klebsiella pneumoniae (ATCC No. 49472), and Candida albicans (ATCC No. 22972).
Prior to each experiment, cultures were streaked onto clean BHI agar plates and incubated at 35° C. for 24 hours. Colonies of the respective cultures were selected and inoculated in phosphate buffer saline (pH 7.5) to a 0.5 McFarland turbidity standard (equivalent to 10^8 CFU mL^−1). The bacterial suspension was then diluted 1:100 in cation adjusted Mueller Hinton Broth (ca-MHB) (Oxoid Ltd, Basingstoke, Hampshire, England).
Stock solutions (50 mg mL^−1) of the SP-BIM test compounds were prepared in DMSO and stored at 4° C. Working preparations of each compound was made up to 1 mg/mL in sterile deionized water with a final DMSO concentration of 10%.
To assess the antibiotic properties of the library of SP-BIMs, the broth microdilution assay was performed in 96-well microplates according to the Clinical and Laboratory Standards Institute 2014 Guidelines (CLSI 2014). The broth microdilution assay was used to determine the minimum inhibitory concentration (MIC). […] Bacterial cells (˜10^6 CFU mL^−1) were inoculated into cation adjusted-Mueller Hinton broth containing the test compound in a twofold serial dilution ranging between 250 μg mL^−1 and 0.02 μg mL^−1. Plates were incubated at 35° C. for 18 hours after which 50 μL of 5% resazurin solution was added to each well. Resazurin is a blue dye which, upon reduction by living cells, turns to a pink resorufin product. Plates were shaken for 1 hour after the addition of the dye. The MIC was recorded as the well with the lowest concentration of test compound where no color change was observed.

[9] = tested on: Pseudomonas aeruginosa ATCC 27853; test: Broth microdilution MIC of SP-BIMs; settings: ATCC27853, SP-BIM alone, read-out: MIC Pseudomonas aeruginosa ATCC 27853
[10] = tested on: Candida albicans ATCC 22972; test: Broth microdilution MIC of SP-BIMs; settings: ATCC22972, SP-BIM alone, read-out: MIC Candida albicans ATCC 22972
Streptococcus pneumoniae = test: Adjuvant broth microdilution (antibiotic MIC with SP-BIM at 50 μg/mL); settings: Streptococcus pneumoniae, Streptococcus pneumonia, SP-BIM at 50 μg mL^−1
[11] = read-out: MIC of Kanamvcin with SP-BIM
[12] = read-out: MIC of Vancomvcin with SP-BIM

Structure (SMILES) | MIC [1] [µg/mL] | MIC [2] [µg/mL] | MIC [3] [µg/mL] | MIC [4] [µg/mL] | MIC [5] [µg/mL] | MIC [6] [µg/mL] | MIC [7] [µg/mL] | MIC [8] [µg/mL] | MIC [9] [µg/mL] | MIC [10] [µg/mL] | MIC (Streptococcus pneumoniae; [11]) [µg/mL] | MIC (Streptococcus pneumoniae; [12]) [µg/mL]
CC(C)(C)c1cc(C(c2c[nH]c3ccccc23)c2c[nH]c3ccccc23)c(O)c(C(C)(C)C)c1 [SP-BIM 3, [bis(indol-3-yl)-3,5-di-tert-butyl-2-hydroxyphenyl]methane] | > 250 | > 250 | > 250 | > 250 | > 250 | > 250 | > 250 | 250 | 250 | 250 | 125 | 1
O=[N+]([O-])c1cccc(C(c2c[nH]c3ccccc23)c2c[nH]c3ccccc23)c1 [SP-BIM 5, [bis(indol-3-yl)-3-nitrophenyl]methane] | > 250 | > 250 | > 250 | > 250 | > 250 | > 250 | > 250 | 250 | 250 | 250 | 125 | 1
c1cc(C(c2c[nH]c3ccccc23)c2c[nH]c3ccccc23)cc(C(c2c[nH]c3ccccc23)c2c[nH]c3ccccc23)c1 [SP-BIM 7, 1,3-bis[bis(indoly-3-yl)methyl]benzene] | > 250 | > 250 | > 250 | > 250 | > 250 | > 250 | > 250 | 250 | 250 | 250 | 125 | 1
